Results from patent US10180422B1, “Methods of treating a neuroendocrine tumor” (Scripps Health, priority 2017, dated 2019).
“Also recorded” adds a separate entry of the source.

System: neuroendocrine tumor (NET) with ETV6:NTRK3 translocation
Test: Treatment of a NET patient with the Trk inhibitor entrectinib (case report, Example 1)
Type: in vivo, human
Conditions: for weight gain: patient
Excerpt: A previously healthy patient presented with progressive low back pain and 11 kg weight loss over the previous year. They were a never-smoker, occasional alcohol drinker, and an avid runner. The patient had no relevant family history of cancer.
A right upper quadrant ultrasound noted echogenic masses present in the liver. A computed tomography (CT) scan identified low-density liver lesions, adrenal masses, bulky retroperitoneal and pelvic lymphadenopathy, and diffuse bony disease. […] Multiple hypermetabolic liver lesions are seen, and innumerable lesions are seen throughout the skeleton (FIG. 1A). CT-guided biopsy of the left iliac bone reported well-differentiated neuroendocrine carcinoma (NETs), possibly from a lower GI source. […] Repeat CT-guided core biopsy of a right iliac soft tissue mass confirmed the absence of a high-grade component, consistent with the initial biopsy.
The patient received 3000 cGy of palliative radiotherapy to L1-S3 in 10 fractions for pain management followed by temozolomide and capecitabine chemotherapy.
Following chemotherapy, a tumor biopsy was obtained from the patient's lymph node, FFPE slides were prepared, and the NTRK status of the patient's NET was first analyzed by immunohistochemistry (IHC). The patient's tumor was positive for altered NTRK protein expression and the NET was subsequently analyzed by RNAseq NGS. An ETV6:NTRK3 translocation was identified in the patient's tumor and therapy was initiated with the investigational agent entrectinib, a potent oral tyrosine kinase inhibitor of TrkA, TrkB, and TrkC.

[1] = after cycle #1 (one month) of entrectinib treatment

SMILES: CN1CCN(c2ccc(C(=O)Nc3n[nH]c4ccc(Cc5cc(F)cc(F)c5)cc34)c(NC3CCOCC3)c2)CC1 [entrectinib, N-[5-(3,5-difluoro-benzyl)-1h-indazol-3-yl]-4-(4-methyl-piperazin-1-yl)-2-(tetrahydro-pyran-4-ylamino)-benzamide]
- axial contrast-enhanced abdominal CT, left pelvic sidewall masses (after 1 cycle of entrectinib, compared with the scan after chemotherapy (FIG. 3B vs 3A)): appear swollen and measure larger, but are lower in density; also recorded: appeared swollen and measured larger, but was lower in density than the previous scan
- FDG-PET imaging, skeleton / bony disease (after 2 cycles of entrectinib (FIG. 1B, right proximal femur)): improvement in the previously confluent bony disease; also recorded: clear improvement was observed in the skeleton
- octreoscan, overall disease (tumor) burden (after 6 months (6 cycles) of entrectinib, compared with presentation (FIG. 2B vs 2A)): significant overall reduction in tumor burden; also recorded: significant reduction in overall disease burden
- pain and energy levels (patient-reported) [1]: significant improvement in pain and energy levels
- clinical status (energy, activity, pain control requirements) (at 8 months on entrectinib): normalized energy and activity, and markedly reduced pain control requirements
- response of liver metastases (during entrectinib treatment): some liver metastases have responded, while others have not
- adverse events (patient on entrectinib up to 8 months): no notable adverse events
- weight gain [1]: 6 kg
- weight gain (at 8 months on entrectinib, stabilized): 12 kg
- follow-up CT scans, pelvic nodal masses (subsequent months of entrectinib treatment): continued shrinkage of the pelvic nodal masses
